In one test the test system is HIV-1 clade B NL4-3. In words: Viral infectivity assay in TZM-bl cells (luciferase), NL4-3. The class given is cell-based. The conditions noted are these: DMSO = 100. An excerpt:
Plasmids, tissue culture and transfections. HIV-1 clade B molecular clone NL4-3 and cade C clones K3016, ZM247 were obtained from Dr. Christina Ochsenbauer, University of Alabama, USA. Both K3016 and ZM247 were constructed using viral strains from South Africa. The HIV-1 clade C molecular clone pindieC1 was obtained from Dr. Uday Ranga, JNCASR, India. This clone was constructed using an HIV strain from India. HEK-293T and TZM-bl cells were propagated in Dulbecco's modified Eagle's medium (DM4EM) containing 10% fetal bovine serum (FBS). HUT-R5 cells were propagated in RPM 1640 medium supplemented with 10% FBS. For transfections, HEK-293T cells were grown in six well plates to about 80% confluency. Cells were transfected using Lipofectamine 2000 (invitrogen, USA) following manufacturer's recommendations. For viral replication assays, HUT-R5 T-cells were transfected using DEAE dextran as described in Waheed, A. A., Ono, A., and Freed, E. O.; Methods for the study of HIV-1 assembly; Methods Mol. Biol. Clifton N.J. 485, 163-184 (2009).
Preparation of viral stocks. Virus stocks were prepared by transfecting HEK-293T cells with HIV-1 DNAs (3 μg). 24 h post-transfection, the culture medium was replaced with fresh DMEM and incubated for another 2 h. Compounds tested were maintained in the culture throughout transfection. The culture supernatant was centrifuged at 845×g for 3 min to remove cellular debris. The clarified supernatants were filtered (pore size 0.45 µm filter disc) to remove residual cellular contaminants. For determination of viral infectivity, the un-concentrated virus was used to infect TZM-bl cells. For the CA-SP1 accumulation assay, the virus was pelleted by ultra-centrifugation at 210,100×g for 1 h at 4° C. using SW41Ti rotor (Beckman Coulter, USA).
Viral infectivity assays. The virus stocks were normalized for p24 antigen using an HIV-1 p24 Antigen Capture kit (ABL, USA). Equal amounts of virus were used to infect TZM-bl cells (5×10^4/well) in the presence of 20 μg DEAE-dextran per mL in 24 well plate. Single-round infectivity assays were performed as previously described in Checkley, M. A. et al; Reevaluation of the Requirement for TIP47 in Human Immunodeficiency Virus Type 1 Envelope Glycoprotein Incorporation; J. Virol. 87, 3561-3570 (2013). The luciferase activity in the cell lysates was measured using the Steady-Glo luciferase assay kit (Promega, USA) following manufacturer's recommendations.

Test [1] concerns panel of HIV-1 isolates in human PBMCs. In words: PBMC antiviral assay against a panel of HIV-1 isolates (RT activity). The class given is cell-based. The protocol:
Antiviral assays. To produce HIV-1 stocks, 293T cells were transfected with WT pNL4-3 or the SP1-V7A derivative and culture supernatants were collected 24 h post transfection. RT-normalized virus supernatants were used to infect MT-4 cells at room temperature for 30 min. Cells were then cultured in the presence of serial dilutions of compounds. At 4 d post-infection, the culture supernatants were subjected to RT assay to monitor viral replication. The 50% inhibitory concentrations (IC50s) were defined as compound concentrations that reduced RT levels to 50% those measured in the absence of inhibitor (DMSO only controls) using GraphPad Prism 6 software. The IC50s in primary peripheral blood mononuclear cells (PBMCs) were calculated with a multi-clade panel of HIV-1 isolates by Southern Research Institute (Frederick, Md.). The PBMCs were stimulated with phytohemagglutinin (PHA) and IL-2 prior to use in the antiviral assays.
Virus Isolates. Compound evaluation against a panel of HIV-1 isolates were performed by the Southern Research Institute (SRI). The viruses were chosen to include one isolate from each of the seven HIV-1 Group M envelope subtypes A, B, C, D, E, F, and G, as well as isolates from HIV-1 Groups O and N. In addition, various drug resistant HIV-1 isolates were included for evaluation. The HIV-1 isolates selected include CCR5-tropic and CXCR4-tropic isolates. Unless otherwise noted, all virus isolates were obtained from the NIH AIDS Research and Reference Reagent Program. Virus isolate 1022-48 was obtained from Dr. William A. Schief of Merck Research Laboratories. MDR769 and MDR807 were obtained from Dr. Thomas C. Merigan of Stanford University. A low passage stock of each virus was prepared using fresh human PBMCs and stored in liquid nitrogen. Pre-titered aliquots of each virus were removed from the freezer and thawed rapidly to rt in a biological safety cabinet immediately before use.
Human PBMC Preparation. Fresh human PBMCs were isolated from screened donors, seronegative for HIV and HBV (Biological Specialty Corporation, Colmar, Pa.). Cells were pelleted/washed 2-3 times by low speed centrifugation and resuspension in Dulbecco's phosphate buffered saline (PBS) to remove contaminating platelets. The leukophoresed blood was then diluted 1:1 with PBS and layered over 14 mL of Ficoll-Hypaque density gradient (Lymphocyte Separation Medium, Cell Grow #85-072-CL, density 1.078+/−0.002 g/mL) in a 50 mL centrifuge tube and then centrifuged for 30 min at 600×g. Banded PBMCs were gently aspirated from the resulting interface and subsequently washed twice with PBS by low speed centrifugation. After the final wash, cells were enumerated by trypan blue exclusion and re-suspended at 1×10^6 cells/mL in RPMI 1640 supplemented with 15% Fetal Bovine Serum (FBS), 2 mM L-glutamine, 100 U/mL penicillin, […] streptomycin, and 4 μg/mL Phytohemagglutinin (PHA; Sigma, St. Louis, Mo.; cat #L1668). The cells were allowed to incubate for 48-72 h at 37° C. After incubation, PBMCs were centrifuged and resuspended in RPMI 1640 with 15% FBS, L-glutamine, penicillin, streptomycin, non-essential amino acids (MEM/NEAA; Hyclone; cat #SH30238.01), and 20 U/mL recombinant human IL-2 (R&D Systems Inc., Minneapolis, Minn.; cat #202IL). PBMCs were maintained in this medium at a concentration of 1-2×10^6 cells/mL, with twice-weekly medium changes until they were used in the assay protocol. Monocytes-derived-macrophages were depleted from the culture as the result of adherence to the tissue culture flask.
PBMC Assay. For the standard PBMC assay, PHA stimulated cells from at least two normal donors were pooled (mixed together), diluted in fresh medium to a final concentration of 1×10^6 cells/mL, and plated in the interior wells of a 96 well round bottom microplate at 50 μL/well (5×10^4 cells/well) in a standard formate developed by the Infectious Disease Research Department of the SRI. […]

One may read the IC50 as the concentration that inhibits the measured activity by half. A high value points to a need for much substance. On to `C=C(C)[C@@H]1CC[C@]2(CCNCCN3CCN(Cc4ccccc4)CC3)CC[C@]3(C)[C@H](CC[C@@H]4[C@@]5(C)CC[C@H](OC(=O)CC(C)(C)C(=O)O)C(C)(C)[C@@H]5CC[C@]43C)[C@@H]12` [Compound 51hh, (3β)-17-[2-[[2-[4-(Phenylmethyl)piperazin-1-yl]ethyl]amino]ethyl]-28-norlup-20(29)-en-3-ol, 3-(1-Hydrogen 2,2-Dimethylbutanedioate)], for which the “% Relative Infectivity NL4-3 10 nM” value in the test on HIV-1 clade B NL4-3 (10 nM) is recorded as 41.4%. Besides, the “% Relative Infectivity NL4-3 100 nM” value in the test on HIV-1 clade B NL4-3 (100 nM) is 3.3%. In addition, the IC50 in test [1] (Human immunodeficiency virus 1, IIIB, PBMC, isolate A17 (IIIB)) was 6.1 nM; in test [1] (Human immunodeficiency virus 1, NL43, PBMC, isolate NL4-3, PBMC), 1.4 nM; in test [1] (Human immunodeficiency virus 1, NL43, PBMC, isolate NL4-3 gp41(36G) N42T, N43K, PBMC) it was 3.8 nM; in test [1] (Human immunodeficiency virus 1, PBMC, isolate 92BR030, PBMC), > 1000 nM; in test [1] (Human immunodeficiency virus 1, PBMC, isolate 92RW009, PBMC), 10.4 nM; in test [1] (Human immunodeficiency virus 1, PBMC, isolate 92UG001, PBMC), 1.2 nM. Also, the IC50 in test [1] (Human immunodeficiency virus 1, PBMC, isolate 93BR020, PBMC) was 3 nM; in test [1] (Human immunodeficiency virus 1, PBMC, isolate 93BR029, PBMC), 4.1 nM; in test [1] (Human immunodeficiency virus 1, PBMC, isolate 93IN101, PBMC), 5.6 nM; in test [1] (Human immunodeficiency virus 1, PBMC, isolate 99UGA07412MI, PBMC), 8 nM; in test [1] (Human immunodeficiency virus 1, PBMC, isolate 1022-48, PBMC), 3.2 nM; in test [1] (Human immunodeficiency virus 1, PBMC, isolate 1064-52, PBMC) it was 1.7 nM. The IC50 in test [1] (Human immunodeficiency virus 1, PBMC, isolate 4736_4 (NL4-3), PBMC) is 1.4 nM; in test [1] (Human immunodeficiency virus 1, PBMC, isolate BCF02, PBMC), 3.8 nM; in test [1] (Human immunodeficiency virus 1, PBMC, isolate CMU02, PBMC), 11.1 nM; in test [1] (Human immunodeficiency virus 1, PBMC, isolate JV1083, PBMC) it was 17.1 nM; in test [1] (Human immunodeficiency virus 1, PBMC, isolate MDR769, PBMC) it was 4.4 nM; in test [1] (Human immunodeficiency virus 1, PBMC, isolate YBF30, PBMC) it was 132 nM. Also, the IC50 in test [1] (isolate CMU02, PBMC) was found to be 7.1 nM.
